The values that follow come from publication PMC12518634, “The noncanonical function of liver-type phosphofructokinase potentiates the efficacy of HDAC inhibitors in cancer” (Signal Transduction and Targeted Therapy, 2025).

For orientation: EC50 means the concentration giving half of the maximal effect.

Where two headings read alike, the source gives them in different places.

One assay has as its system 1405R3. The assay is described as follows: High-throughput drug screen, CellTiter-Glo viability, 72 h. It is filed as cell-based, human. Also noted: AUC: scale not given here. The settings on record: 1405R3 DSRT analysis; for AUC: area under the dose-response curve; for MIN: lower asymptote of fitted dose-response curve; for SLOPE: slope of fitted dose-response curve; for EC50: 72 h, fitted dose-response curve, Min.Conc.tested 1, Max.Conc.tested 10000, read-out: EC50. Here is the method: (§1) The cells were seeded and incubated with a gradient of concentrations of drugs for 72 h, after which the cell viability was assessed (Supplementary Fig. 1a). The drug library primarily comprises epigenetic drugs, including HDAC inhibitors, DNA methyltransferase inhibitors, and histone demethylase inhibitors, as well as conventional chemotherapies and kinase inhibitors (Supplementary Fig. 1b and Supplementary Table 1). […] To identify novel therapeutics against CCA, we conducted a high-throughput screen employing PerkinElmer’s integrated robotic Explorer G3 workstations. […] Following dilution to five specified concentrations, drugs were dispensed into 96-well plates in the sequence detailed in Supplementary Fig. 1a. The CCA cell lines were subsequently plated in 384-well plates at a density of 3000 cells per well in a 20 μL total volume. After a 24-h incubation, the compounds were added to the wells and incubated for 72 h. We then quantified cell viability via the CellTiter-Glo luminescent assay according to the manufacturer’s protocol. Signal detection was carried out on a Synergy2 plate reader operated by Gen5 software (BioTek). For data processing, the raw luminescence data were processed through the Breeze pipeline for curve fitting, yielding quality control metrics (e.g., Z-factors) and drug response parameters (AUC and DSS), as adapted from previous work.[54] Drug responses were evaluated on the basis of the drug sensitivity score (DSS), and a cutoff of ≥10 was used to define efficacy. The complete drug library and screening dataset are available in Supplementary Tables 1-3.
(§2) Supplementary Fig. 1. A high-throughput drug screen to identify drugs targeting CCA. a Schematic representation of the drug screening protocol. […] Each drug was tested at five different concentrations (10, 1, 0.1, 0.01, and 0.001 μM), and each treatment was replicated twice. b Classification of drugs used for screening.
(In general: ATP-based viability assays read luminescence as a measure of living cells.)

Another assay concerns 783C-6. The description is as above. It is filed as cell-based, human. Also noted: AUC: scale not given here. The settings on record: for AUC: area under the dose-response curve; for EC50: 72 h, read-out: EC50. Here is the method: as §1, §2
[1] abbreviates: 783C-6 cells, DSS of DSRT analysis.
Setting [2] is: 783C-6 cells, minimum of dose-response curve.
The mark [3] stands for this setting: 783C-6 cells, slope of fitted dose-response curve.
The mark [4] stands for this setting: 783C-6 cells, DSRT analysis, CellTiter-Glo viability, concentrations tested 1 to 10000 (unit inferred), GI50.
The mark [5] stands for this setting: 783C-6 DSRT analysis, DSS calculated from the dose-response curve.
[6] abbreviates: 783C-6 DSRT analysis, MIN of the fitted dose-response curve.
Where [7] appears, read: Homo sapiens, CellTiter-Glo viability, GI50.

As for `O=C(Nc1ccc(O)c(C(=O)O)c1)c1cccc(NC(=O)c2ccco2)c1` [OSS_128167], the AUC in the assay with 1405R3 worked out at 8.4; with 783C-6 (783C-6 cells), 7.3. For the same compound, the DSS in the assay on 1405R3 (drug sensitivity score) and with 783C-6 (setting [1]) was 0 throughout. The MIN in the assay on 1405R3 was determined as 94.6; in the assay with 783C-6 (setting [2]), 92.5. The SLOPE is recorded as -0.1 with 1405R3 and -0.3 with 783C-6 (setting [3]).

Regarding `COc1ccc(CCc2nc3cc(-c4c(C)noc4C)ccc3n2C[C@H](C)N2CCOCC2)cc1Cl` [SGC-CBP30], the AUC is given as 28.3 in the assay on 1405R3 and 4.1 with 783C-6 (783C-6 cells). In addition, the DSS with 1405R3 (drug sensitivity score) and in the assay on 783C-6 (setting [1]) was 0 throughout. In addition, the MIN in the assay on 1405R3 worked out at 84.6; in the assay with 783C-6 (setting [2]) it was 86.4.

Take OG-L002: the figures for the AUC with 1405R3 and with 783C-6 (783C-6 cells) were 0.1 and 3, respectively. In addition, the DSS in the assay with 1405R3 (drug sensitivity score) and in the assay with 783C-6 (setting [1]) was 0 throughout. Moreover, the values for the MIN with 1405R3 and in the assay with 783C-6 (setting [2]) were 100 and 94.7, respectively. In addition, the values for the SLOPE in the assay with 1405R3 and in the assay on 783C-6 (setting [3]) were -0.1 and -0.5, respectively.

For `CCCCNNC(=O)c1ccc(Br)cc1` [UF010], the EC50 with 1405R3 (CellTiter-Glo viability, GI50) was 2.32 µM; with 783C-6 (setting [4]), 1.28 µM. Moreover, the AUC is 21.1 with 1405R3 and 22.5 with 783C-6 (783C-6 cells). The DSS is 2 in the assay on 1405R3 (drug sensitivity score) and 2.1 in the assay on 783C-6 (setting [1]). The MIN amounted to 67.1 in the assay with 1405R3 and 74.9 with 783C-6 (setting [2]). Besides, the SLOPE with 1405R3 is on record as -2.5; in the assay on 783C-6 (setting [3]), -2.4.

`CN(C)NC(=O)CCC(=O)O` [Daminozide]: the DSS with 1405R3 (DSS) and in the assay on 783C-6 (setting [5]) was 0 each time. In addition, the AUC in the assay on 1405R3 is listed as 0.1; with 783C-6 (783C-6 DSRT analysis) it was 1. The MIN in the assay on 1405R3 is 99.6; in the assay on 783C-6 (setting [6]), 97.8.

For `NC(=O)C1CCCc2c1[nH]c1ccc(Cl)cc21` (stereo not shown) [Selisistat], the AUC with 1405R3 is reported as 1; in the assay with 783C-6 (783C-6 cells), 11.9. Besides, the DSS with 1405R3 (drug sensitivity score) and with 783C-6 (setting [1]) was 0 in each case. Also, the results for the MIN in the assay on 1405R3 and in the assay on 783C-6 (setting [2]) were 97.8 and 93.6, respectively. In addition, the SLOPE in the assay with 1405R3 is listed as -0.6; with 783C-6 (setting [3]) it was -0.1.

On to `CCN(CC)Cc1ccc2cc(COC(=O)Nc3ccc(C(=O)NO)cc3)ccc2c1` [Givinostat], for which the DSS with 1405R3 (DSS) and in the assay on 783C-6 (setting [5]) was 9.2 in each case. For the same compound, the AUC came out at 79.9 in the assay with 1405R3 and 81.1 in the assay with 783C-6 (783C-6 DSRT analysis). Further, the MIN with 1405R3 and in the assay with 783C-6 (setting [6]) was 1.5 throughout. The EC50 was determined as 1.55 µM in the assay with 1405R3 (Homo sapiens, CellTiter-Glo) and 1.52 µM in the assay on 783C-6 (Homo sapiens).

For the compound `O=C(CCCCCN1C(=O)c2cccc3cccc(c23)C1=O)NO` [Scriptaid], the AUC is reported as 77.8 with 1405R3 and 74.4 with 783C-6 (783C-6 cells). The DSS is given as 9 in the assay on 1405R3 (drug sensitivity score) and 8.6 in the assay on 783C-6 (setting [1]). Besides, the MIN is 11.5 with 1405R3 and 3.2 in the assay on 783C-6 (setting [2]). Also, the EC50 is 1.33 µM in the assay with 1405R3 (setting [7]) and 1.71 µM in the assay with 783C-6 (Homo sapiens).

For the compound `CN1CCc2c(c3ccccc3n2Cc2ccc(C(=O)NO)cc2)C1.Cl` [Tubastatin A HCl], the AUC in the assay on 1405R3 was 3.3; in the assay with 783C-6 (783C-6 cells) it was 2.4. For the same compound, the DSS with 1405R3 (drug sensitivity score) and in the assay with 783C-6 (setting [1]) was 0 each time. For the same compound, the results for the MIN with 1405R3 and with 783C-6 (setting [2]) were 94.8 and 92.1, respectively. Moreover, the SLOPE in the assay on 1405R3 is listed as -0.5; in the assay on 783C-6 (setting [3]), -1.

With `O=C(CCCCCCC(=O)NO)NO` [Suberohydroxamic acid], the figures for the AUC with 1405R3 and in the assay with 783C-6 (783C-6 cells) were 0.5 and 1.4, respectively. In addition, the DSS with 1405R3 (drug sensitivity score) and in the assay with 783C-6 (setting [1]) was 0 in each case. The results for the MIN in the assay on 1405R3 and with 783C-6 (setting [2]) were 98 and 95.2, respectively.

For the compound `CCCC(CCC)C(=O)O` [Valproic acid], the AUC in the assay on 1405R3 is 18.4; with 783C-6 (783C-6 cells), 4.4. For the same compound, the DSS with 1405R3 (drug sensitivity score) and in the assay with 783C-6 (setting [1]) was 0 in each case. Also, the MIN in the assay with 1405R3 is listed as 88.1; with 783C-6 (setting [2]), 85.5.

For the compound `CCN(CCCOc1ccc2c(Nc3cc(CC(=O)Nc4cccc(F)c4)n[nH]3)ncnc2c1)CCOP(=O)(O)O` [Barasertib], the DSS with 1405R3 (DSS) and in the assay on 783C-6 (setting [5]) was 0 throughout. The values for the AUC in the assay with 1405R3 and with 783C-6 (783C-6 DSRT analysis) were 0.1 and 11.5, respectively. The MIN amounted to 100 in the assay with 1405R3 and 91.7 in the assay with 783C-6 (setting [6]).

On to `Cc1sc2c(c1C)C(c1ccc(Cl)cc1)=N[C@@H](CC(=O)Nc1ccc(O)cc1)c1nnc(C)n1-2` [OTX015], for which the figures for the AUC with 1405R3 and with 783C-6 (783C-6 cells) were 90.2 and 6.1, respectively. For the same compound, the DSS with 1405R3 (drug sensitivity score) came to 10.4; in the assay on 783C-6 (setting [1]) it was 0. For the same compound, the MIN was determined as 24.3 in the assay on 1405R3 and 90.3 in the assay with 783C-6 (setting [2]). Also, the half-maximal effective concentration (EC50) in the assay with 1405R3 (setting [7]) was 0.649 µM.

Regarding `COc1cc2c(NC3CCN(C(C)C)CC3)nc(N3CCC(F)(F)CC3)nc2cc1OCCCN1CCCC1` [UNC0642], the AUC in the assay on 1405R3 was determined as 0.1; in the assay with 783C-6 (783C-6 cells) it was 7.2. Moreover, the DSS with 1405R3 (drug sensitivity score) and with 783C-6 (setting [1]) was 0 in each case. In addition, the MIN in the assay with 1405R3 is listed as 99.3; in the assay on 783C-6 (setting [2]), 94.

For the compound `O=C(O)C(=O)O.[NH-][C@@H]1CCCC[C@H]1[NH-].[Pt+2]` [Oxaliplatin], the AUC in the assay with 1405R3 was determined as 20.5; in the assay with 783C-6 (783C-6 cells) it was 41.2. Also, the DSS in the assay on 1405R3 (drug sensitivity score) turned out to be 1.7; in the assay with 783C-6 (setting [1]), 3.8. Further, the MIN in the assay with 1405R3 came to 78.3; in the assay with 783C-6 (setting [2]), 65.7. For the same compound, the SLOPE in the assay with 1405R3 was -2.2; in the assay with 783C-6 (setting [3]) it was -1.1. In addition, the EC50 in the assay on 783C-6 (setting [4]) amounted to 0.659 µM.

Regarding `Cc1ccc(C(=O)Nc2ccc(CN3CCN(C)CC3)c(C(F)(F)F)c2)cc1C#Cc1cnc2cccnn12` [Ponatinib], the AUC is 16.5 with 1405R3 and 59.9 with 783C-6 (783C-6 cells). Besides, the DSS in the assay on 1405R3 (drug sensitivity score) amounted to 0.6; in the assay on 783C-6 (setting [1]), 7. For the same compound, the MIN in the assay with 1405R3 came to 87; in the assay on 783C-6 (setting [2]), 66.9. Further, the concentration giving a half-maximal response (EC50) in the assay on 783C-6 (Homo sapiens) was 0.155 µM.

Consider `Nc1ccccc1NC(=O)c1cnccn1` [BG45], for which the DSS with 1405R3 (DSS) is recorded as 0.1; with 783C-6 (setting [5]) it was 2.2. The AUC in the assay on 1405R3 is 36.3; in the assay on 783C-6 (783C-6 DSRT analysis) it was 49. In addition, the MIN with 1405R3 and in the assay with 783C-6 (setting [6]) was 83.6 throughout. Further, the SLOPE in the assay on 1405R3 is listed as -0.1; in the assay with 783C-6 (783C-6 DSRT analysis, slope of the fitted dose-response curve), -0.3.

Consider `Cc1cc(Nc2ccc(NC(=O)c3ccc(Nc4ccnc5ccccc45)cc3)cc2)nc(N)n1` [SGI-1027], for which the AUC with 1405R3 turned out to be 19.4; in the assay with 783C-6 (783C-6 cells), 2.3. The DSS with 1405R3 (drug sensitivity score) and in the assay with 783C-6 (setting [1]) was 0 each time. Moreover, the MIN was 87.3 with 1405R3 and 92.3 in the assay with 783C-6 (setting [2]). The SLOPE in the assay with 1405R3 is given as -0.4; with 783C-6 (setting [3]), -1.

On to `O=C(O[C@@H]1Cc2c(O)cc(O)cc2O[C@@H]1c1cc(O)c(O)c(O)c1)c1cc(O)c(O)c(O)c1` [(-)-Epigallocatechin Gallate], for which the DSS in the assay on 1405R3 (DSS) and with 783C-6 (setting [5]) was 0 each time. Further, the AUC in the assay with 1405R3 was 0.7; with 783C-6 (783C-6 DSRT analysis), 22.9. Besides, the MIN in the assay with 1405R3 was 97.6; with 783C-6 (setting [6]), 75.7.
